Measured values: US20020127605A1 (priority 2000, published 2002)

Tests used:
[1] = target: T1, recombinant rat CyPA-GST fusion protein (Rattus norvegicus, UniProt P10111); test: Rotamase (prolyl peptidyl cis-trans isomerase) inhibition, chymotrypsin-coupled cuvette assay; assay type: biochemical
T1 construct: made in house; host or cells: E. coli BL21
Source text: (§1) A number of substrates for rotamase are known in the art or can be derived from those known. Typically, the substrate contacts a sample containing a protein with rotamase activity and the conversion of the substrate is detected after a period of time. The method for detecting conversion of the substrate will vary with the particular substrate chosen. One method has been termed the Ki test (See Harding, et al., Nature, 341:758-760 (1989). The cis-trans isomerization of an alanine-proline bond in a model substrate, N-succinyl-Ala-Ala-Pro-Phe-p-nitroanilide, is monitored spectrophotometrically in a chymotrypsin-coupled assay. The action of chymotrypsin releases p-nitroaniline from only the trans form of the substrate. The amount of p-nitroaniline can be monitored in a spectrophotometer, for example. Other methods of detecting the presence of p-nitroaniline can also be used. The inhibition of this reaction caused by different concentrations of inhibitor is determined and the data are analyzed as a change in first-order rate constant as a function of inhibitor concentration, which yields the Ki value.
(§2) The following were added to a plastic cuvette: […] of ice cold assay buffer (25 mM HEPES, pH 7.8, 100 mM NaCl), 10 μL of CyP A (2.5 μM in 10 mM Tris-Cl pH 7.5, 100 mM NaCl, 1 mM dithiothreitol), 25 μL of chymotrypsin (50 mg/ml in 1 mM HCl), and 10 μL of test compound, at various concentrations, in dimethyl sulfoxide. The reaction was initiated by the addition of 5 μL of substrate (succinyl-Ala-Phe-Pro-Phe-para-nitroanilide, 5 mg/mL in 470 mM LiCl in trifluoroethanol). The absorbance at 390 nm versus time was monitored for 90 seconds using a spectrophotometer and the rate constants were determined from the absorbance versus time data files.
(§3) The IC50 values that were obtained for representative compounds in the following Table I refer to the concentration that inhibits 50% of the rotamase activity in a sample. […] The Cyclophilin utilized was a recombinant rat CyPA-GST fusion protein: CypA was amplified from rat brain cDNA using standard PCR methods, primed with the following sequences: 5′ CCCCCCGGGAGTCAACCCCACCGTGTTCTTCGA 3′ and 5′ GGAGATCTAGAGTTGTCCACAGTCGGAGATGGT 3′. The resulting fragment (573 base pairs) was cloned into pCRII and amplified. The CyP sequence was cut out with Smal and EcoRl and cloned into the Smal/EcoRl sites in pGEX2TK (Pharmacia). This plasmid was transformed into BL21 E. coli cells for expression of the GST-CyPA fusion protein.

[2] = tested on: striatal tyrosine hydroxylase-immunoreactive fibres; test: MPTP-lesioned mouse model of Parkinson's disease, striatal TH fiber density; assay type: in vivo; settings: 10 mg/kg s.c. in Intralipid once daily days 1-5, one hour prior to MPTP; analysis day seven
Source text: MPTP (N-methyl-4-phenyl-1,2,3,6-tetrahydropyridine) is a systemically available neurotoxin specific to nigrostriatal dopaminergic neurons, i.e. to the cells that degenerate in human Parkinson's disease. Administration of MPTP to mice leads to a selective partial destruction of the mesotelencephalic dopaminergic projection, and to a loss of dopamine and dopaminergic fibres in the corpus striatum, which is the main forebrain target of midbrain dopaminergic neurons.
Young adult male CD1 albino mice (Harlan—Sprague Dawley; 22-25 g) were dosed i.p. with the dopamine cell-specific neurotoxin N-methyl-4-phenyl-1,2,3,6-tetrahydropyridine (MPTP hydrochloride, calculated as 34 mg/kg free base), dissolved in saline at a concentration of 3.4 mg/ml free base once daily on days one to five. […]
Blinded analysis of TH fiber density in the central striatum was performed at 630× magnification. […] The percentage of sample field covered by TH positive processes and terminals was calculated using an image analysis program (“Simple,” Compix Inc., Pittsburgh, Pa.). The mean striatal innervation density was calculated for each group. The magnitude of striatal deafferentation due to the MPTP lesion was assessed by dividing the observed striatal innervation values obtained in MPTP/vehicle treated cases by the mean striatal innervation density in the Vehicle/Vehicle group and expressed as % loss. […]

human recombinant CyPA = human recombinant CyPA (Homo sapiens, UniProt P62937); test: Rotamase inhibition, chymotrypsin-coupled cuvette assay (asterisked values); assay type: biochemical
Source text: as §1, §2, §3

[3] = tested on: Sprague-Dawley rat lumbar spinal cord slices; test: Neuroprotection assay in spinal cord slice preparations (THA-induced cell death); assay type: cell-based; settings: THA 200 μM + compound 10 μM
Description: Neuroprotection Assay in Spinal Cord Slice Preparations: All cultures were derived from postnatal day 8 (P8) Sprague-Dawley rat lumbar spinal cord slices of 325 micron thickness, prepared using a commercially available Mcllwain tissue chopper. Each experiment consisted of two 6-well plates with 5 slices from 4 different animals per well. Media changes were performed every 3 to 4 days. Cultures were treated with THA [L(−)-threo-3-hydroxyaspartic acid; Tocris Cookson Inc., Ballwin, Mo.] at 200 μM+compound (10 μM) after one week in culture. The control was an untreated sample with 0.1% DMSO as vehicle. The THA control was a THA treated sample with 0.1% DMSO as vehicle. Two wells were used per condition. One media change with new THA and compounds was performed. […] Quantification of surviving neurons was performed on a Zeiss Axiovert microscope. Neuronal survival was determined by observing an intact neuronal cell body with processes located ventrally of the central canal in each hemisphere. […] Each hemisphere was counted individually. The statistics were performed with StatView™ software on a minimum of three different experiments per condition and significance was determined as compared to THA control. The percent of protection was determined from the average number of living neurons by the following equation: (drug treatment condition−THA control)/(Untreated control−THA control). […]

T1 sequence (P10111 2-164): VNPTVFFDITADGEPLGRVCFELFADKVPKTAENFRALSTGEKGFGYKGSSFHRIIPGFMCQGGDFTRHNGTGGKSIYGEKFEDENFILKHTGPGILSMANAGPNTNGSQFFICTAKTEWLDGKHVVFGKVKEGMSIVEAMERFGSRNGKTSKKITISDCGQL
Sequence of human recombinant CyPA (P62937 whole entry): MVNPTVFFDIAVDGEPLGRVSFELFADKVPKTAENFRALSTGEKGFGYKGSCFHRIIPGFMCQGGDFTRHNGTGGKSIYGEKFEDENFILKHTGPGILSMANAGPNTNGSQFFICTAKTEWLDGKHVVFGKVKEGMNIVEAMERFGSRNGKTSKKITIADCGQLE

Compound | IC50 [1] [µM] | protection of striatal tyrosine hydroxylase-immunoreactive fibres [2] | IC50 (human recombinant CyPA) [µM] | protection from THA-induced cell death [3] | SMI-32 immunoreactive neurons per ventral hemisphere ([3]; untreated control 26.4±4.2, THA control 15.97±2.04, mean±standard error) [cells/ventral hemisphere]
O=C(Nc1cccc(N(S(=O)(=O)c2cc(Cl)cc(Cl)c2)S(=O)(=O)c2cc(Cl)cc(Cl)c2)c1)c1cc(Cl)cc(Cl)c1 [Compound 8a] | 0.364 | 37,2% |  |  | 
O=C(Nc1cc(Cl)cc(Cl)c1)N[C@H]1CCCC[C@H]1NC(=O)Nc1cc(Cl)cc(Cl)c1 [Compound 15a] | 0.61 | 72.4% | 0.521 | complete protection | 26.5±2.7
